This note sets out measurements from patent US12054478B2, “Compositions and methods for inhibiting phenyl triazole MLL1-WDR5 protein-protein interaction” (China Pharmaceutical University, priority 2018, dated 2024).

Series [1] concerns K562 human chronic myeloid leukemia cells. The series is described as follows: Anti-proliferation on leukemia cells, K562. The class given is cell-based. The method, then: Anti-proliferation experiments were conducted with leukemia cells with some of the compounds in the present disclosure. Table 3 listed the results of evaluation of the anti-proliferation activities for some of the compounds from this present disclosure conducted with acute leukemia cells, wherein MV4-11 is human acute leukemia monocyte, Molm-13 is human acute myeloid leukemia cells, and K562 is human chronic myeloid leukemia cells.

A short description of series [2]: Solubility at pH 7.4. The class given is physicochemical. To be noted: aqueous medium at pH 7.4 (water solubility), aqueous buffer.
Series [3] has as its target MLL1-WDR5 protein-protein interactions (Homo sapiens, UniProt P61964). The series is described as follows: Inhibition of MLL1-WDR5 protein-protein interaction. The class given is binding.
For series [4], the system named is Molm-13 human acute myeloid leukemia cells. The series is described as follows: Anti-proliferation on leukemia cells, Molm-13. The class given is cell-based. To be noted: Homo sapiens; Molm-13 cells. The method, then: (§1) Anti-proliferation experiments were conducted with leukemia cells with some of the compounds in the present disclosure.
The test system of series [5] is MV4-11 human acute leukemia monocyte. The series is described as follows: Anti-proliferation on leukemia cells, MV4-11. The class given is cell-based. The note with it: Homo sapiens, MV4-11; MV-411 cells. The procedure: as §1
Setting [6] is: Table 2, compounds of this present disclosure.
The mark [7] stands for this setting: Table 1, read-out: MLL1-WDR5 PPI inhibition activity.
Setting [8] is: Table 2, biphenyl comparison compounds (Eur. J. Med. Chem. 2016, 124, 480-489), read-out: MLL1-WDR5 PP1 inhibition activity.
The mark [9] stands for this setting: Table 2, biphenyl comparison compounds.
Setting [10] is: Table 2, compounds of this present disclosure, read-out: MLL1-WDR5 PP1 inhibition activity.

Usually GI50 stands for the concentration that inhibits growth by half. A high value points to less potent growth inhibition. By solubility is commonly meant the dissolved amount per volume that the medium holds.

Molecules are shown by their SMILES. In brackets after ≈: the same amount, converted by molar mass. Like-named read-outs stand apart in the source and are kept apart here.

For the compound `Cc1c(F)c(N)cc(C(=O)Nc2cc(-n3cc(C(=O)NC4CCOCC4)nn3)ccc2N2CCN(C)CC2)c1Cl` [Example 5, 1-(3-(5-Amino-2-chloro-4-fluoro-3-methylbenzoylamino)-4-(4-methylpiperazin-1-group)phenyl)-N-(tetrahydro-2H-pyran-4-yl)-1H-1,2,3-triazole-4-carboxamide], growth in series [1] was halved (GI50) at 27.5 ± 2.8 µM.
In series [2] (setting [6]), `Cc1c(F)c(N)cc(C(=O)Nc2cc(-n3cc(C(=O)N4CCOCC4)nn3)ccc2N2CCN(C)CC2)c1Cl` [drawing 10] had a solubility of 200 µg/mL (≈ 359 µM).
With `Cc1c(F)c(O)cc(C(=O)Nc2c(N3CCN(C)CC3)ccc(-n3cc(NC(=O)CCN)nn3)c2C)c1Cl` [Example 23], the IC50 in series [3] (setting [7]) was below 0.05 µM. For the same compound, the GI50 was found to be 17.9 ± 1.6 µM in series [4] and 27.7 ± 0.3 µM in series [1].
For the compound `Cc1c(F)c(N)cc(C(=O)Nc2cc(-c3ccc(N)cc3)ccc2N2CCN(C)CC2)c1Cl` [drawing 15, reference compound], the IC50 in series [3] (setting [8]) came to 0.0887 µM. This compound also had a solubility in series [2] (setting [9]) of 9.5 µg/mL (≈ 20.3 µM).
For `Cc1c(F)c(N)cc(C(=O)Nc2cc(-n3ccnn3)ccc2N2CCN(C)CC2)c1Cl` [Example 11, 5-amino-2-chloro-4-fluoro-3-methyl-N-(2-(4-methylpiperazin-1-group)-5-(1H-1,2,3-triazole-1-group)phenyl) benzamide], the concentration for 50% growth inhibition (GI50) in series [5], in series [4] and in series [1] was 13.5 ± 1.5 µM throughout.
In the case of `Cc1c(F)c(N)cc(C(=O)Nc2cc(-n3ccnn3)ccc2N2CCN(C)CC2)c1Cl` [drawing 12], the IC50 in series [3] (setting [10]) came to 0.0657 µM. The same compound gave a solubility in series [2] (setting [6]) of 30 µg/mL (≈ 67.6 µM).
For `Cc1c(F)c(N)cc(C(=O)Nc2cc(-c3ccccc3)ccc2N2CCN(C)CC2)c1Cl` [reference compound], the IC50 in series [3] (setting [8]) was 0.0479 µM. In addition, the concentration in solution in series [2] (setting [9]) (solubility) came to 3.1 µg/mL (≈ 6.84 µM).
`Cc1c(F)c(N)cc(C(=O)Nc2cc(-c3ccc(C(=O)N(C)C)cc3)ccc2N2CCN(C)CC2)c1Cl` [reference compound] registered a solubility in series [2] (setting [9]) of 21 µg/mL (≈ 40.1 µM).
Consider `Cc1c(F)c(N)cc(C(=O)Nc2cc(-n3cc(C(=O)NCCCN)nn3)ccc2N2CCN(C)CC2)c1Cl` [Example 10], for which the IC50 in series [3] (setting [7]) was below 0.01 µM. Moreover, the GI50 in series [5], in series [4] and in series [1] was 13.5 ± 1.2 µM throughout.
For the compound `Cc1c(F)c(N)cc(C(=O)Nc2cc(-n3cc(C(=O)N4CCN(C)CC4)nn3)ccc2N2CCN(C)CC2)c1Cl` [Example 8, 5-amino-2-chloro-4-fluoro-3-ethyl-N-(2-(4-methylpiperazin-1-group)-5-(4-(methylpiperazin-1-Carbonyl)-1H-1,-1H-1,2,3-triazole-1-group) Phenyl)-carboxamide], in series [1], it took 34.1 ± 1.2 µM to inhibit growth by half (GI50).
Take `COC(=O)c1ccc(-c2ccc(N3CCN(C)CC3)c(NC(=O)c3cc(N)c(F)c(C)c3Cl)c2)cc1` [reference compound]: the concentration in solution in series [2] (setting [9]) (solubility) was 1.9 µg/mL (≈ 3.72 µM).
On to `Cc1c(F)c(N)cc(C(=O)Nc2cc(-n3cc(C(=O)NCCN4CCOCC4)nn3)ccc2N2CCCN(C)CC2)c1Cl` [Example 24, 1-(3-(5-amino-2-chloro-4-fluoro-3-Methylbenzoylamino)-4-(4-methyl-1,4-Diazepane-1-group)phenyl)-N-(2-Morpholineethyl)-1H-1,2,3-triazol-4-formamide], for which the IC50 in series [3] (setting [7]) was below 0.05 µM. The figures for the GI50 in series [5], in series [4] and in series [1] were 11.3 ± 0.7 µM, 12.9 ± 0.9 µM and 13.5 ± 2.2 µM, respectively.
In the same order, the values of `Cc1c(F)c(N)cc(C(=O)Nc2cc(-n3cc(C(=O)NCCN4CCOCC4)nn3)ccc2N2CCN(C)C(C)C2)c1Cl` (centres unmarked) [Example 25] are below 0.05 µM, 10.9 ± 0.9 µM, 8.5 ± 0.7 µM and 11.3 ± 0.7 µM.
Regarding `Cc1c(F)c(N)cc(C(=O)Nc2cc(-c3ccc(C(=O)N4CCOCC4)cc3)ccc2N2CCN(C)CC2)c1Cl` [reference compound], the solubility in series [2] (setting [9]) is 27 µg/mL (≈ 47.7 µM).
Take `Cc1c(F)c(N)cc(C(=O)Nc2cc(-n3cc(NC(=O)OC(C)(C)C)nn3)ccc2N2CCN(C)CC2)c1Cl` [Example 12]: the IC50 in series [3] (setting [7]) is below 0.08 µM. Besides, in series [5], the 50% growth inhibitory concentration (GI50) was 23.2 ± 3.2 µM.
`Cc1c(F)c(N)cc(C(=O)Nc2cc(-n3cc(N)nn3)ccc2N2CCN(C)CC2)c1Cl` [Example 13, 5-amino-N-(5-(4-amino-1H-1,2,3-triazole-1-group)-2-(4-methylpiperazin-1-group)phenyl)-2-chloro-4-fluoro-3-Methylbenzamide]: in series [3] (setting [7]), the IC50 is below 0.08 µM. Besides, the results for the GI50 in series [5], in series [4] and in series [1] were 10.1 ± 1.3 µM, 9.2 ± 1.4 µM and 10.5 ± 2 µM, respectively.
With `CCOc1cn(-c2ccc(N3CCN(C)CC3)c(NC(=O)c3cc(N)c(F)c(C)c3Cl)c2F)nn1` [Example 20], the values for the concentration for 50% growth inhibition (GI50) in series [5], in series [4] and in series [1] were 8.6 ± 0.6 µM, 10.1 ± 1.3 µM and 10.5 ± 2 µM, respectively.
For the compound `Cc1c(F)c(N)cc(C(=O)Nc2cc(-n3cc(NC(=O)C4CCN(C)CC4)nn3)ccc2N2CCN(C)CC2)c1Cl` [Example 14], in series [3] (setting [7]), the IC50 was below 0.01 µM. For the same compound, the 50% growth inhibitory concentration (GI50) in series [5] was 9.5 ± 1 µM; in series [4], 11 ± 2 µM; in series [1], 14.1 ± 1.3 µM.
As to `Cc1c(F)c(N)cc(C(=O)Nc2cc(-n3cc(C(=O)N(C)C)nn3)ccc2N2CCN(C)CC2)c1Cl` [Example 3, 1-(3-(5-Amino-2-chloro-4-fluoro-3-methylbenzoylamino)-4-(4-methylpiperazin-1-group)phenyl)-N, N-dimethyl-1H-1,2,3 triazole-4-carboxamide], the GI50 in series [5] is 44.6 ± 1.3 µM; in series [4], 22.8 ± 5.5 µM; in series [1] it was above 100 µM.
Take `Cc1c(F)c(N)cc(C(=O)Nc2cc(-n3cc(NC(=O)C4CCNCC4)nn3)ccc2N2CCN(C)CC2)c1Cl` [drawing 18]: the IC50 in series [3] (setting [10]) stood at 0.0123 µM. In series [2] (setting [6]), this compound yielded a solubility of 1240 µg/mL (≈ 2170 µM).
On to `Cc1c(F)c(N)cc(C(=O)Nc2cc(-c3ccc(NC(=O)C4CCNCC4)cc3)ccc2N2CCN(C)CC2)c1Cl` [reference compound], for which the IC50 in series [3] (setting [8]) came out at 0.0085 µM. The solubility in series [2] (setting [9]) turned out to be 125 µg/mL (≈ 216 µM).
In series [2] (setting [6]), `COC(=O)c1cn(-c2ccc(N3CCN(C)CC3)c(NC(=O)c3cc(N)c(F)c(C)c3Cl)c2)nn1` [drawing 6] had a solubility of 20 µg/mL (≈ 39.8 µM).
As for `Cc1c(F)c(N)cc(C(=O)Nc2cc(-n3cc(N)nn3)ccc2N2CCN(C)CC2)c1Cl` [drawing 14], the IC50 in series [3] (setting [10]) was 0.0903 µM. In addition, the concentration in solution in series [2] (setting [6]) (solubility) was 110 µg/mL (≈ 240 µM).
In series [2] (setting [6]), `Cc1c(F)c(N)cc(C(=O)Nc2cc(-n3cc(C(=O)N(C)C)nn3)ccc2N2CCN(C)CC2)c1Cl` [drawing 8] showed a solubility of 170 µg/mL (≈ 330 µM).
In the case of `Cc1c(F)c(N)cc(C(=O)Nc2cc(-n3cc(NC(=O)C4CCNCC4)nn3)ccc2N2CCN(C)CC2)c1Cl` [Example 15, N-(1-(3-(5-amino-2-chloro-4-fluoro-3-Methylbenzoylamino)-4-(4-methylpiperazingroup)phenyl)-1H-1,2,3-Triazopyridine-4-group) Piperidine-4-formamide], the IC50 in series [3] (setting [7]) is below 0.01 µM. Further, the 50% growth inhibitory concentration (GI50) in series [5] worked out at 14.3 ± 1.7 µM; in series [4] it was 18.5 ± 1.9 µM; in series [1] it was 12.9 ± 0.2 µM.
With `Cc1c(F)c(N)cc(C(=O)Nc2cc(-n3cc(NC(=O)C4CCN(C)CC4)nn3)ccc2N2CCN(C)CC2)c1Cl` [drawing 16], the IC50 in series [3] (setting [10]) was determined as 0.006 µM. Further, the solubility in series [2] (setting [6]) was 630 µg/mL (≈ 1080 µM).
Take `Cc1c(F)c(O)cc(C(=O)Nc2c(N3CCN(C)CC3)ccc(-n3cc(NCC(N)=O)nn3)c2F)c1Cl` [Example 21, N-(3-(4-((2-amino-2-Oxoethyl)amino)-1H-1,2,3-triazol-1-group)-2-fluoro-6-(4-methylpiperazin-1-group)phenyl)-2-chloro-4-fluoro-5-hydroxyl-3-Methyl benzoyl]: the IC50 in series [3] (setting [7]) was below 0.08 µM. In addition, the GI50 came out at 12.7 ± 0.8 µM in series [5], 7.7 ± 0.9 µM in series [4] and 10.5 ± 0.8 µM in series [1].
Consider `Cc1c(F)c(N)cc(C(=O)Nc2cc(-c3ccc(NC(=O)C4CCN(C)CC4)cc3)ccc2N2CCN(C)CC2)c1Cl` [reference compound], for which the solubility in series [2] (setting [9]) was 54 µg/mL (≈ 91 µM).
On to `Cc1c(F)c(N)cc(C(=O)Nc2cc(-n3cc(CCN(C)C)nn3)ccc2N2CCN(C)CC2)c1Cl` [Example 19, 5-amino-2-chloro-N-(5-(4-(2-(Dimethylamino)ethyl)-1H-1,2,3-triazol-1-group)-2-(4-methylpiperazin-1-groupgroup)phenyl)-4-fluoro-3-Methyl benzoyl], for which the IC50 in series [3] (setting [7]) was below 0.05 µM. Also, the GI50 in series [5] is 13.7 ± 1.4 µM; in series [4] it was 16.8 ± 2 µM; in series [1] it was 13.5 ± 1.2 µM.
Regarding `Cc1c(F)c(N)cc(C(=O)Nc2cc(-n3cc(NC(=O)CCCN)nn3)ccc2N2CCN(C)CC2)c1Cl` [drawing 20], the IC50 in series [3] (setting [10]) amounted to 0.0067 µM. The solubility in series [2] (setting [6]) was 1300 µg/mL (≈ 2400 µM).
For the compound `Cc1c(F)c(N)cc(C(=O)Nc2cc(-n3cc(C(=O)NCCN4CCOCC4)nn3)ccc2N2CCN(C)CC2)c1Cl` [Example 9], in series [1], the GI50 turned out to be 35.8 ± 2.7 µM.
For the compound `Cc1c(F)c(N)cc(C(=O)Nc2cc(-n3cc(NC(=O)CCO)nn3)ccc2N2CCN(C)CC2)c1Cl` [Example 17, 5-amino-2-chloro-4-fluoro-N-(5-(4-(3-Hydroxypropionylamino)-1H-1,2,3-triazol-1-group)-2-(4-methylpiperazin-1-group)phenyl)-3-methyl benzoylamino], the IC50 in series [3] (setting [7]) is below 0.05 µM. For the same compound, the results for the GI50 in series [5], in series [4] and in series [1] were 10.4 ± 1.1 µM, 7.3 ± 0.8 µM and 21.3 ± 2.4 µM, respectively.
Take `Cc1c(F)c(N)cc(C(=O)Nc2cc(-c3ccc(NC(=O)CCCN)cc3)ccc2N2CCN(C)CC2)c1Cl` [drawing 21, reference compound]: the solubility in series [2] (setting [9]) was determined as 110 µg/mL (≈ 199 µM).
